Assay results published in article PMC5478727, “A Novel Small Molecule GDNF Receptor RET Agonist, BT13, Promotes Neurite Growth from Sensory Neurons in Vitro and Attenuates Experimental Neuropathy in the Rat” (Frontiers in Pharmacology, 2017).
“And” between values parts separate entries of the source, which are not always exact repeats. Equal entries are not always repeated.

Legend:
[1] = system: rats with spinal nerve ligation (L5/L6); assay: Spinal nerve ligation (Chung's) model of experimental neuropathy, von Frey test
[2] = system: adult rat lumbar DRG sensory neurons; assay: Neurite outgrowth from cultured DRG neurons; type: cell-based; conditions: for effect of pre-treatment on BT13-stimulated neurite outgrowth: LY294002 50 μM; for effect of pre-treatment on BT13-stimulated neurite outgrowth / block of BT13-stimulated neurite outgrowth, maximum length, mean difference / block of BT13-stimulated neurite outgrowth, total length, mean difference: PD98059 50 μM, SU6656 2 μM; for block of BT13-stimulated neurite outgrowth, maximum length, mean difference / block of BT13-stimulated neurite outgrowth, total length, mean difference: pre-treatment with inhibitor: LY294002 50 μM
Description: Cultured lumbar DRG (L3–L5) neurons were prepared using a published method (O'Mullane et al., [2013]). After plating onto poly-L-ornithine (5 μg/ml)/laminin (5 μg/ml) coated coverslips for 1 h, DRG neurons were cultured for 24–30 h in fresh Neurobasal A/B27. GFLs, BT13, NGF, and vehicle control were added at the start of this period for a 24–30 h treatment, except when preceded by pre-treatment (1 h) with inhibitors (50 μM LY294002; 2 μM SU6656, […]; Biomol Research Laboratories, Plymouth Meeting, PA, USA). DRG neurons were then fixed (4% paraformaldehyde) and processed for immunocytochemistry with 1:200 Mouse anti-β III tubulin/AlexaFluor 594 (Sigma-Aldrich Cat# T8660 RRID:AB_477590) and 1:5,000 rabbit anti-calcitonin gene-related peptide/AlexaFluor 488 (Sigma-Aldrich Cat# C8198 RRID:AB_259091) and DAPI for nuclear staining (0.5 μg/ml, Molecular Probes). Image analysis of multichannel 12 bit Zeiss .ZVI or .TIF files (captured with a Zeiss Imager.M1/MRm camera/Zen software; Carl Zeiss Australia, North Ryde, NSW, Australia) was then performed by a researcher blinded to the experimental condition. Neurite initiation was measured by a single parameter (proportion of neurons with neurites longer than the soma diameter). Neurite elongation was measured by batch processing (HCA-Vision software; CSIRO Mathematical and Information Sciences, North Ryde, NSW, Australia) to obtain four parameters—Root number: number of primary neurites; Maximum length: length of longest neurite; Branch points: number of neurite branch points; and Total length: sum of neurite lengths (Kalous and Keast, [2010]; Kalous et al., [2012]). The number of neurons of each immunocytochemical class counted on each coverslip (technical replicates) was 50 for neurite initiation and 20 for neurite elongation. A minimum of three cultures from different rats (biological replicates) were analyzed for each treatment group.

[3] = biological target: T1, serotonin receptor 5-HT2C (Homo sapiens, UniProt P28335); assay: CEREP 5-HT2C (h) (agonist radioligand); type: binding; conditions: reference compound
T1 construct: purchased CEREP (contract assay) 0137, 1003
T1 sequence (P28335 33-458): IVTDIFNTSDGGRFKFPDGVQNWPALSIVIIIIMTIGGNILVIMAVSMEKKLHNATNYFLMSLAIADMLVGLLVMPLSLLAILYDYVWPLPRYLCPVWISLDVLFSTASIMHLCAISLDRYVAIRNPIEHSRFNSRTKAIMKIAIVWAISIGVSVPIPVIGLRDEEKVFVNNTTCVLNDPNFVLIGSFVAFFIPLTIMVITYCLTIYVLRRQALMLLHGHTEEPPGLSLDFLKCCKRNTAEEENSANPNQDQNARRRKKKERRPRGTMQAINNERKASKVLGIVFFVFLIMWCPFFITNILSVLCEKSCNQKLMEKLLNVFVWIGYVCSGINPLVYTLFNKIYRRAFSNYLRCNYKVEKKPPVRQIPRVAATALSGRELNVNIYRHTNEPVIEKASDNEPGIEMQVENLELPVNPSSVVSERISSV

[4] = biological target: T1, serotonin receptor 5-HT2C; assay: CEREP 5-HT2C (h) (antagonist radioligand); type: binding; conditions: reference compound
neurotensin receptor NT = assay: CEREP NT (non-selective; agonist radioligand); type: binding; conditions: reference compound, Cat. No. 0465
GFRα1/RET = biological target: T2, GFRα1/RET (Homo sapiens, UniProt P07949); design: method as in Sidorova et al., 2010; conditions: GDNF in this assay, ref Sidorova et al., 2010, cited from earlier work
T2 construct: full-length human RET (long isoform) in pCR3.1; expressed in transfected cells; host or cells: MG87 murine fibroblasts (MG87RET + PathDetect Elk-1 + GFRα1)
T2 sequence (P07949 29-1114): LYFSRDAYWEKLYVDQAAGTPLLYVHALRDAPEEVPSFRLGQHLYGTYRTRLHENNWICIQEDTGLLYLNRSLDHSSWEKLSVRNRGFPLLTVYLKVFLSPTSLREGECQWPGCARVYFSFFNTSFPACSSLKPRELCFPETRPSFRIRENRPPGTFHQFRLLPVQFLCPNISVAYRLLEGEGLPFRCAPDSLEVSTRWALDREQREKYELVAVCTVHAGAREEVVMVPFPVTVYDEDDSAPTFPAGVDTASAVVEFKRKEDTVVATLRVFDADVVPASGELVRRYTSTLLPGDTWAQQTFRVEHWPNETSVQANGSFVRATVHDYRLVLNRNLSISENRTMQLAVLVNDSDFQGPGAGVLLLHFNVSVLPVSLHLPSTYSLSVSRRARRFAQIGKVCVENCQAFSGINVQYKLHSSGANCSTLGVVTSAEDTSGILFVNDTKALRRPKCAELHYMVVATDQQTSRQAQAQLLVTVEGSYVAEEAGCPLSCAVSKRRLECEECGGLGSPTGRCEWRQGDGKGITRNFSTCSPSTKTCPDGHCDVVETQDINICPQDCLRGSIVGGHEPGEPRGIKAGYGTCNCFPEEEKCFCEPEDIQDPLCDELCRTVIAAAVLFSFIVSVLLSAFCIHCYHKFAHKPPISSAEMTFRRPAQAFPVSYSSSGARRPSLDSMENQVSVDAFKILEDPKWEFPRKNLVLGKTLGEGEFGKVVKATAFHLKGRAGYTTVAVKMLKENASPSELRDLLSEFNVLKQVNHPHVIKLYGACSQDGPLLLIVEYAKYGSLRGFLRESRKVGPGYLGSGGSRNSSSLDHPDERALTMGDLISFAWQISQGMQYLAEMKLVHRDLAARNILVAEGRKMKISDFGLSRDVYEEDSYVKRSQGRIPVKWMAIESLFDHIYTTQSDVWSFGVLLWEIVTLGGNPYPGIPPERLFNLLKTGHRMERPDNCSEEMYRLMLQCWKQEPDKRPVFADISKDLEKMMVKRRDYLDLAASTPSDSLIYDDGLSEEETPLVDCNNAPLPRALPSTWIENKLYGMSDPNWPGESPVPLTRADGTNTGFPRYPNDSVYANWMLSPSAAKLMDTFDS

[5] = system: dorsal root ganglia neurons of SNL rats; assay: Immunohistochemistry of DRG neuronal markers in rats with spinal nerve ligation; type: in vivo, rat; conditions: IHC
Excerpt: DRGs from rats with spinal nerve ligation treated with BT13 or vehicle were embedded in paraffin and sectioned (7 μm thickness). Sections were deparaffinized, subjected to citrate or basic antigen-retrieval procedure and probed with IB4-Alexa 488 [1:200; IB4-Alexa488, Cat# IB4 (isolectin Griffonia simplicifolia IB4) RRID:AB_2314664] and antibodies against calcitonin gene-related peptide (CGRP; 1:10,000, Peninsula Laboratory, Cat# T-4032 RRID:AB_2313775), NPY (1:10,000, Peninsula Laboratory, Cat# T-4070.0050 RRID:AB_518504), pErk1/2 (1:300, Cell Signaling, Cat# 4370L RRID:AB_2297462), pS6 (1:300, Cell Signaling, Cat# 4858L RRID:AB_1031194) or RET [1:100, kind gift of Dr. E. Kramer, Center for Molecular Neurobiology, University Medical Center Hamburg-Eppendorf, Hamburg, Germany (Meka et al., [2015])] and corresponding secondary antibodies conjugated with fluorophores (Donkey Anti-Rabbit Alexa Fluor 647 conjugate, Cat# A31573 RRID:AB_162544; Donkey anti-Mouse Alexa Fluor 647 conjugate, Cat# A-31571 RRID:AB_2536181; Goat anti-Guinea Pig, Alexa Fluor 568 conjugate, Cat# A-11075 RRID:AB_2534119, Thermo Fisher Scientific, USA) or horse radish peroxidase (VECTASTAIN Elite ABC-Peroxidase Kit antibody, Vector Laboratories, CA, USA, Cat# PK-6101 RRID:AB_2336820). In the latter case, to reveal staining slides were treated with ABC and DAB staining kits (Vector Laboratories, CA, USA) according to the manufacturer's instructions. Sections were co-stained with guinea pig anti-PGP9.5 antibodies (Abcam Cat# ab10410 RRID:AB_297150) whenever possible. Nuclei were visualized using hematoxylin or DAPI dyes. Sections were mounted in Immu-Mount (Thermo Scientific, Cat#9990402) or Coverquick 2000 (Q PATH, Cat#05547530) mounting media and images were taken with fluorescent (Zeiss Imager M2 Axio, Carl Zeiss, Germany) or bright-field (Olympus BX-61, Olympus, Japan) microscopes. Neurons were counted for two sections per DRG and the number of cell profiles with nuclei positive for each specific marker was normalized to the total number of the neurons (identified by PGP9.5 staining or by morphology) per section. Ret-positive neurons were clustered by size using Matlab software R2014b (Mathworks, USA). Statistical analysis was performed using data from three to six individual animals. To obtain sufficient sample size, the data from animals treated with 20 and 25 mg/kg of BT13 were combined.

[6] = gabapentin single oral dose 100 mg/kg on day 12, 1 h before test

NCC1(CC(=O)O)CCCCC1 [gabapentin, reference compound]
contralateral PWT [1, 6]: 26 ± 0.0 | ipsilateral PWT [1, 6]: 24.2 ± 1.83

CN(C)S(=O)(=O)c1ccc2c(c1)/C(=C/c1cc3c([nH]1)CCCC3)C(=O)N2 [SU6656, reference compound]
effect of pre-treatment on BT13-stimulated neurite outgrowth [2]: completely blocked | block of BT13-stimulated neurite outgrowth, maximum length, mean difference ([2]; BT13 100 ng/ml): 116 ± 53 μm | block of BT13-stimulated neurite outgrowth, total length, mean difference ([2]; BT13 100 ng/ml): 1098 ± 343 μm

COc1cc(CC(C)N)c(OC)cc1I (racemic) [(±)DOI]
IC50 ([3]; Cat. No. 1003): 0.46 nM | Ki ([3]; Cat. No. 1003, read-out: Ki Ref): 0.42 nM

COc1cccc(-c2cc(=O)c3ccccc3o2)c1N [PD98059, reference compound]
effect of pre-treatment on BT13-stimulated neurite outgrowth [2]: completely blocked | block of BT13-stimulated neurite outgrowth, maximum length, mean difference ([2]; BT13 100 ng/ml): 78 ± 17 μm | block of BT13-stimulated neurite outgrowth, total length, mean difference ([2]; BT13 100 ng/ml): 449 ± 113 μm

COc1cc(OC)c(C(=O)CCCCN2CCC3(CC2)NC(=O)NC3=O)cc1NS(=O)(=O)c1ccc(C(F)(F)F)cc1 [RS 102221]
IC50 ([4]; Cat. No. 0137): 3 nM | Ki ([4]; Cat. No. 0137, read-out: Ki Ref): 0.99 nM

O=c1cc(N2CCOCC2)oc2c(-c3ccccc3)cccc12 [LY294002, reference compound]
effect of pre-treatment on BT13-stimulated neurite outgrowth [2]: completely blocked | block of BT13-stimulated neurite outgrowth, branch points, mean difference ([2]; pre-treatment with LY294002 50 μM, BT13 100 ng/ml): 22 ± 5 | block of BT13-stimulated neurite outgrowth, maximum length, mean difference ([2]; BT13 100 ng/ml): 100.7 ± 13 μm | block of BT13-stimulated neurite outgrowth, total length, mean difference ([2]; BT13 100 ng/ml): 817 ± 207 μm

Neurotensin
IC50 (neurotensin receptor NT): 2.9 nM | Ki (neurotensin receptor NT; read-out: Ki Ref): 2.7 nM

B1: glial cell line-derived neurotrophic factor (protein, UniProt P39905 78-211, looked up)
Glial cell line-derived …: SPDKQMAVLPRRERNRQAAAANPENSRGKGRRGQRGKNRGCVLTAIHLNVTDLGLGYETKEELIFRYCSGSCDAAETTYDKILKNLSRNRRLVSDKVGQACCRPIAFDDDLSFLDDNLVYHILRKHSAKRCGCI
notes: GDNF family ligand protein from PeproTech
efficacy, fold induction of luciferase above baseline (GFRα1/RET): 84.9 fold and 50–100 fold | EC50 (GFRα1/RET; read-out: EC50, luciferase activation): 1.2 nM

B2: artemin (protein, UniProt Q5T4W7 108-220, looked up)
Artemin: AGGPGSRARAAGARGCRLRSQLVPVRALGLGHRSDELVRFRFCSGSCRRARSPHDLSLASLLGAGALRPPPGSRPVSQPCCRPTRYEAVSFMDVNSTWRTVDRLSATACGCLG
notes: as for B1
neurite initiation or extension ([2]; CGRP-negative neurons, NGF 10 ng/ml, ARTN 30 ng/ml, BT13 100 ng/ml): no effect | neurite elongation significantly increased ([2]; CGRP-positive neurons, ARTN 30 ng/ml): not | neurite initiation ([2]; CGRP-positive neurons, NGF 10 ng/ml, ARTN 30 ng/ml, BT13 100 ng/ml, overnight): significantly increased | proportion of DRG neurons that expressed CGRP in culture ([2]; NGF 10 ng/ml, ARTN 30 ng/ml, BT13 100 ng/ml): did not alter | reduction in the number of RET-positive cells in DRGs after SNL ([5]; day 12 after SNL): restored | number of large RET-positive neurons in lesioned DRGs ([5]; size above 1,000 μm^2, vs contralateral): increased | number of small RET-positive neurons in lesioned DRGs ([5]; size below 1,000 μm^2, vs contralateral): decreased | increase of ipsilateral paw withdrawal threshold (PWT) ([1]; ARTN 0.5 mg/kg s.c. on days 1, 3, 5, 8, 10, 12, von Frey, day 12 post-surgery): 2.6 times
